Consider two compounds from PMC13197777, “Distinct 2-phenylimidazo[1,2-a]pyridine derivatives that inhibit breast cancer cell proliferation identified as AHR ligands” (iScience, 2026).

The structures appear in SMILES notation. Like-named read-outs stand apart in the source and are kept apart here.

The test system of series [1] is MCF-7 luc D538G and MCF-7 luc Y537S. The experiment in a line: Clonogenic assay, cells expressing the two mutant ERs (range over both). Type of series: cell-based. The note with it: Homo sapiens, MCF7, read-out: IC50 clonal expansion in cells expressing the two mutant ERs. How it is done:
(§1) Cells were seeded at a density of 1–2×10^3 cells/well in a 6-well plate and treated with increasing concentrations of the X compounds for 14–21 days. Medium and compounds were renewed every 7 days. The experiments were terminated by fixing the cells with methanol and the colonies formed were visualized after staining with 0.5% crystal violet (w/v) in 20% methanol (v/v). Plates were photographed and the area covered by the colonies was calculated using the ColonyArea Plugin for Fiji (RRID:SCR_003070).[20]

Series [2] deals with CTC-ITB-01 cells. The experiment in a line: Clonogenic assay of CTC-ITB-01 cells. Type of series: cell-based, human. The note with it: CTC-ITB-01, two weeks of treatment. How it is done: as §1
Series [3] deals with MCF-7 luc Y537S. The experiment in a line: Clonogenic assay (clonal expansion), MCF-7 cells with Y537S ER mutation. The note with it: Homo sapiens, MCF7, 336 h. Type of series: cell-based. How it is done:
as §1

A short description of series [4]: Parallel artificial membrane permeability assay (PAMPA). The note with it: for Conc. acceptor well / Conc. donor well: PAMPA after incubation. The protocol: The plates were stored at – 20 °C until ready for use. Prior to use, the plate was prewarmed at room temperature for 30 min. Donor- and acceptor solutions were prepared as 12 mM phosphate buffered saline with a pH of 6.5 (donor) respectively 7.4 (acceptor). […] Then, 300 μL of each donor solution were filled into the donor (bottom) wells of the PAMPA plate. 200 μL of the acceptor medium were loaded into each well of the pre-coated receiver plate (top). […] The compound concentrations in the donor- and acceptor wells were then determined using a Jasco 2 HPLC system equipped with a ReproSil-Pur 120 ODS-3 column (5 μm, 50 × 2 mm) and UV detection. […] The injection volume was 40 μL and the flow rate 1 mL/min. […] For X15695, two calibration curves were prepared in the presence (donor well) and absence (acceptor well) of 10% ethanol. (Figure S6). The experiments were performed in triplicates.
Where cA(t) is the compound concentration in the acceptor well in μmol⋅l^−1, cD(t) is the compound concentration in the donor well in […], VA and VD is the volume of the acceptor respectively donor solution per well in mL, A is the membrane area in cm^2 and t the incubation time in seconds (Table S3).

The subject of series [5] is PDxO#28. Kind of series: Organoid viability, CellTiter-Glo 3D. Type of series: cell-based, human. The note with it: PDxO#28 in 3D Matrigel, 7 days, increasing doses; same results in PDO#268 and PDO#480. The source says:
Organoids were generated from patients’ samples and from patient-derived xenograft (PDX) tumors, as previously described.[25] PDX were derived from BCRO#28, an ER^+ breast cancer sample collected from a treatment naive patient. PDO#268 was derived from BCRO#268, an ER^+ breast cancer sample collected from treatment naive patient. PDO#480 was derived from BCRO#480, an ER^+ breast cancer sample collected from a patient subjected to chemotherapy in neo-adjuvant setting. Briefly, tumors freshly explanted from mice were mechanically shredded, digested with collagenase (Merck) and filtered through a 100 μm strainer. Digested material (isolated cells and small cell clusters) was centrifuged and embedded in 3D-matrix drops (reduced growth factor Basement Membrane Extract, BME, R&D systems), then overlaid with breast cancer organoid medium.[25] For 3D survival curves under treatment, organoids were embedded in BME drops and, after 24 - 48 h, drugs were added. Fresh drug-containing medium was replaced on day 4. On day 7 of treatment, CellTiter-Glo 3D Cell Viability Assay (Promega) was added and luminescent signal from viable organoids was recorded on Infinite M1000 Pro instrument (Tecan).

In series [6] the test system is CTC-ITB-01 cells. The experiment in a line: cells. Type of series: cell-based. To be noted: for CC50: Homo sapiens, read-out: LC50. How it is done: LC50 values were measured using the CyQUANT NF Cell Proliferation Assay Kit (Thermo Fisher). CTC-ITB-01 cells were plated at a density of 2x10^3 cells/well in 96-well plates and treated the following day with serial dilutions of the test compounds. After incubation for the indicated time, cells were stained with CyQUANT dye according to the manufacturer’s protocol and incubated at 37°C for 30 min. Fluorescence was measured using a Tecan Infinite M Nano+ (excitation: 485 nm; emission: 530 nm). For the calculation of the LC50 the fluorescence was plotted against the Log10 of the inhibitor concentration in nM as x values and the LC50 values were calculated with 95% confidence intervals (n = 4).

Series [7] can be described thus: Compound stability in aqueous environment. Type of series: physicochemical. The note with it: 12.5 μM, HEPES pH 7.4/acetonitrile 3:2, 1% DMSO, 21 °C, 5 days. The protocol:
The stability of the compounds was evaluated at a concentration of 12.5 μM in a 3:2 mixture of buffer (HEPES, 0.1 M, pH 7.4) and acetonitrile, with 1% DMSO. Acetonitrile was added because the concentration of 12.5 μM exceeded the thermodynamic solubility of the compounds in the buffer. This addition thereby prevented the formation of precipitates and a gradual decrease in compound concentration during the measurement. The resulting solution was stirred at 21 °C in a sealed vial (crimp neck vials, 5 mL, clear (Cat. No. 548-0611A) in combination with natural rubber septa (548-0565A) and aluminum crimp caps (548-3278A), VWR International) for 5 days. […] The AUC measured was subsequently plotted as a function of the incubation time (Figure S3). No signs of decomposition could be observed over the given time.

Series [8] has as its system ERα target genes (PGR, TFF1, PDZK1, GREB1). The experiment in a line: Quantitative RT-PCR of ER target genes in MCF-7 cells. To be noted: MCF-7, 1 μM, absence and presence of 10 nM E2, 24 h.

For the compound `Fc1ccc(-c2cn3cc(C(F)(F)F)cc(Cl)c3n2)cc1` [X15695], the IC50 in series [1] is 7.82 to 11.6 nM; in series [3] (read-out: IC50 clonal expansion, Figure 1B, MCF-7 luc Y537S, absence of E2, 14 days) it was 7.82 nM; in series [3] (read-out: IC50 clonal expansion, Figure 1C, MCF-7 luc Y537S + 10 nM E2, 14 days) it was 6.41 nM; in series [3] (read-out: IC50 clonal expansion, Figure 1D, MCF-7 luc Y537S, absence of E2, 14 days) it was 7.82 nM; in series [3] (read-out: IC50 clonal expansion, Figure 1E, MCF-7 luc Y537S + 10 nM E2, 14 days) it was 6.41 nM. For the same compound, the “inhibition of clonal expansion compared to fulvestrant” value in series [2] is listed as “about three orders of magnitude more potent”. In series [4] (PAMPA), this compound displayed an apparent permeability coefficient (Papp) at 5 h, 200 µM of 8.68 ×10⁻⁶ cm/s. Further, the Conc. acceptor well in series [4] (replica 1) amounted to 55.19 µM; in series [4] (replica 2), 55.84 µM; in series [4] (replica 3), 25.23 µM. Further, the Conc. donor well in series [4] (replica 1) is on record as 214.69 µM; in series [4] (replica 2) it was 190.41 µM; in series [4] (replica 3), 225.99 µM. In addition, in series [5], the “organoid viability (survival)” value is “significantly reduced survival in a dose-dependent manner”. In addition, in series [6] (CTC-ITB-01, 48 h and 120 h), the “LC50 fold lower compared to fulvestrant” value is recorded as 20 fold. Besides, the CC50 in series [6] (48 h) turned out to be 400 nM; in series [6] (120 h), 300 nM. For the same compound, the “stability in aqueous environment” value in series [7] is listed as “no obvious decomposition detected”.

Take `Cc1cc(Cl)c2nc(-c3ccccc3)cn2c1` [X19728]: in series [8], the “expression of ERα target genes (RT-PCR)” value is reported as “not significant in the presence of E2”.
